Test results reported in patent publication US20240277585A1, “COMPOSITION OF LIPID NANOPARTICLE CONTAINING VITIS VINIFERA EXTRACT, COSMETIC USES OF A COMPOSITION OF LIPID NANOPARTICLE CONTAINING VITIS VINIFERA EXTRACT, ANTIOXIDANT DERMOCOSMETIC PRODUCT AND FOR PREVENTING SKIN AGING AND SKIN CARE METHOD” (ACHÉ LABORATÓRIOS FARMACÊUTICOS S.A., priority 2021, published 2024).

Experiments:
Type in all cases: biochemical
[1] = system: elastase; assay: Activity of the elastase enzyme
Procedure: (§1) The anti-aging effect of the composition of the first aspect was determined by the methods that measure the activity of the elastase enzyme and the activity of the metalloproteases (MMP) enzyme.

[2] = target: MMP 3 (Homo sapiens, UniProt P08254); assay: Activity of the metalloproteases (MMP) enzyme
MMP 3, sequence (P08254 100-477): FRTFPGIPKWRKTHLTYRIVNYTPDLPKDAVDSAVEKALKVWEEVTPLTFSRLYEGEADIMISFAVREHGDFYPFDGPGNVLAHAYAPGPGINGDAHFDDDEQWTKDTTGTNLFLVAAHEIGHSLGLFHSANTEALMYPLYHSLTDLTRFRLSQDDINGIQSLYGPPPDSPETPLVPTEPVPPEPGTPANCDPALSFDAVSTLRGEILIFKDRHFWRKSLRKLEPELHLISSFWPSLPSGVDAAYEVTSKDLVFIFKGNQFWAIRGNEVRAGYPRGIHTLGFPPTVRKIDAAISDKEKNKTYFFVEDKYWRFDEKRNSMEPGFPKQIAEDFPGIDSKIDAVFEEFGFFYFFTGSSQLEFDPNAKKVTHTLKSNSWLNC
Procedure: as §1

[3] = target: MMP 12 (Homo sapiens, UniProt P39900); assay: Activity of the metalloproteases (MMP) enzyme
MMP 12, sequence (P39900 106-470): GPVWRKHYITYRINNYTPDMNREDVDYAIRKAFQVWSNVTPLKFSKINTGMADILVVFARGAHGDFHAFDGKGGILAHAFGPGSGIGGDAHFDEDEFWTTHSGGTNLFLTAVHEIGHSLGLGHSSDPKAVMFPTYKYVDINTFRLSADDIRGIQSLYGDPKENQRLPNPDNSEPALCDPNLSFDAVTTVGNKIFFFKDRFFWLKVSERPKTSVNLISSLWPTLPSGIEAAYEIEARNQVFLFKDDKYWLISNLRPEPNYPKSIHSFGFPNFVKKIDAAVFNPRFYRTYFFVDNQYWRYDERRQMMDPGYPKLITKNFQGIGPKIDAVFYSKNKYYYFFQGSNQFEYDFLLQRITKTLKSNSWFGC
Procedure: as §1

[4] = target: T1, MMP 1 (Homo sapiens, UniProt P03956); assay: Activity of the metalloproteases (MMP) enzyme
T1 sequence (P03956 100-469): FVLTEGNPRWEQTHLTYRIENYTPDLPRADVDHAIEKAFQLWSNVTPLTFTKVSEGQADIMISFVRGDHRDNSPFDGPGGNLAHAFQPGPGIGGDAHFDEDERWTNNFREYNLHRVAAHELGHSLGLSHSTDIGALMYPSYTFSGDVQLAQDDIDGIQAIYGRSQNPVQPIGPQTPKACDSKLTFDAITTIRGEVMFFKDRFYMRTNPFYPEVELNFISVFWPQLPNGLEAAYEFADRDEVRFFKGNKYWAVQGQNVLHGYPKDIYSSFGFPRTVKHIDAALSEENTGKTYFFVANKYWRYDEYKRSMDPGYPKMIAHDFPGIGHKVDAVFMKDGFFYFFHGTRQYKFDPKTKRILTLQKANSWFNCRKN
Procedure: as §1

Molecule | Inhibition of the activity of elastase [1] | Inhibition of the activity of MMP 3 [2] | Inhibition of the activity of MMP 12 [3] | Inhibition of the activity of MMP 1 [4]
O=C1O[C@H]([C@@H](O)CO)C(O)=C1O [Vitamin C] | do not present such result | do not present this result | do not present this result | do not present this result
Vitamin E | do not present such result | do not present this result | do not present this result | do not present this result
